Results taken from article PMC3355106, “Structural Basis for Specificity of Propeptide-Enzyme Interaction in Barley C1A Cysteine Peptidases” (PLoS ONE, 2012).
Peptide text beside a SMILES is read from it. * marks the point of attachment. AMC = Cc1cc(=O)oc2cc(N*)ccc12; Cbz = O=C(OCc1ccccc1)*

Legend:
Experiment in all cases: fluorescence of released AMC
Assay type in all cases: biochemical
Conditions in all cases: pH 6.0, 30 °C, 10 mM L-cysteine, 10 mM EDTA, 0.01% Brij35
[1] = molecular target: T1, BovCathB (Bos taurus, UniProt P07688)
T1 construct: gene CTSB; commercial enzyme (Calbiochem)

[2] = molecular target: T2, HvPap-4 (Hordeum vulgare, UniProt B4ESE6)
T2 construct: gene pap-4; propeptide printed as R25-D134

[3] = molecular target: T3, HvPap-16 (Hordeum vulgare, UniProt B4ESF4)
T3 construct: gene pap-16; the propeptide cloning list prints HvPap-17 (A23-V156) instead of HvPap-16

[4] = molecular target: T4, HvPap-6 (Hordeum vulgare, UniProt B4ESE8)
T4 construct: gene pap-6; propeptide printed as A25-E131
T4 sequence (B4ESE8 entry or part of it): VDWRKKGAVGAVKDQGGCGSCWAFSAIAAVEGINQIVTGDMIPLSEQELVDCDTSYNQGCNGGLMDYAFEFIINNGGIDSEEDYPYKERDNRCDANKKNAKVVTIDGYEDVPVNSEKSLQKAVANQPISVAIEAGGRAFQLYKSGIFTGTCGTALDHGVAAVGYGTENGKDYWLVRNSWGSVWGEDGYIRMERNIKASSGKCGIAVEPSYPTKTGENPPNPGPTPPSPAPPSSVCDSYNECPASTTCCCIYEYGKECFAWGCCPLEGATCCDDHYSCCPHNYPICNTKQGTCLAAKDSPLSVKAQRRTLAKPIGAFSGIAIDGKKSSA

T2 sequence (B4ESE6 entry or part of it): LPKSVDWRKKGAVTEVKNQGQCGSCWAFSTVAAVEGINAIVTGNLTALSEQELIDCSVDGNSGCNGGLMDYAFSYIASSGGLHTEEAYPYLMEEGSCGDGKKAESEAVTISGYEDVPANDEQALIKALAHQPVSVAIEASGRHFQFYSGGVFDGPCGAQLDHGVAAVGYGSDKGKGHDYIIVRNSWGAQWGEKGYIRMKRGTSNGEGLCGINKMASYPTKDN
T3 sequence (B4ESF4 entry or part of it): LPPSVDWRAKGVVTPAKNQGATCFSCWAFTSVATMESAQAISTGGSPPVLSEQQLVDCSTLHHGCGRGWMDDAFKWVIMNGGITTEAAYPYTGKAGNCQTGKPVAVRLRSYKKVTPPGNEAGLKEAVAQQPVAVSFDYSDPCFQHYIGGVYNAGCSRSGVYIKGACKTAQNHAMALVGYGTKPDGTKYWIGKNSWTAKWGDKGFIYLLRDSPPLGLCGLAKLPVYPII

| Compound | fluorescence of released AMC [1] | fluorescence of released AMC [2] | fluorescence of released AMC [3] | fluorescence of released AMC [4] |
| --- | --- | --- | --- | --- |
| Cc1cc(=O)oc2cc(NC(=O)[C@H](CCCNC(=N)N)NC(=O)[C@H](CCCNC(=N)N)NC(=O)OCc3ccccc3)ccc12 [Z-RR-AMC] (Cbz-Arg-Arg-{AMC}) | Z-FR-AMC (for cathepsin L) or Z-RR-AMC (for cathepsin B) fluorescent substrates were added | – | – | – |
| Cc1cc(=O)oc2cc(NC(=O)[C@H](CCCNC(=N)N)NC(=O)[C@H](Cc3ccccc3)NC(=O)OCc3ccccc3)ccc12 [Z-FR-AMC] (Cbz-Phe-Arg-{AMC}) | – | Z-FR-AMC (for cathepsin L) or Z-RR-AMC (for cathepsin B) fluorescent substrates were added | Z-FR-AMC (for cathepsin L) or Z-RR-AMC (for cathepsin B) fluorescent substrates were added | Z-FR-AMC (for cathepsin L) or Z-RR-AMC (for cathepsin B) fluorescent substrates were added |
